The NIST ThermoML archive (doi:10.1016/j.jct.2009.05.019)
Numbers after ± are expanded uncertainties.

Test: molar enthalpy of vaporization or sublimation
Details: 298.15 K; Crystal; Calvet microcalorimetry

With `c1ccc2c(c1)sc1ccccc12` [dibenzothiophene] the molar enthalpy was 22.3 ± 0.239 kcal/mol.
